Source: PubChem BioAssay (NCI)
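Abbreviation: GI50, concentration required for 50% inhibition of growth. The concentration for full growth arrest is given as TGI.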

Key:
Test in all cases: growth of human tumour cells (NCI), 384-well format
[1] = tested on: HCC-2998 colon
[2] = tested on: SF-539 CNS
[3] = tested on: MCF7 breast
[4] = tested on: NCI-H226 lung
[5] = tested on: HS 578T breast
[6] = tested on: MDA-MB-468 breast
[7] = tested on: KM12 colon
[8] = tested on: MALME-3M melanoma
[9] = tested on: SNB-75 CNS
[10] = tested on: MDA-MB-435 melanoma
[11] = tested on: UO-31 renal
[12] = tested on: K-562 leukemia
[13] = tested on: HOP-62 NSCLC
[14] = tested on: HL-60(TB) leukemia
[15] = tested on: HCT-116 colon
[16] = tested on: A549 NSCLC
[17] = tested on: SF-268 CNS
[18] = tested on: M14 melanoma
[19] = tested on: NCI/ADR-RES ovarian
[20] = tested on: SN12C renal
[21] = tested on: UACC-257 melanoma
[22] = tested on: SK-MEL-28 melanoma
[23] = tested on: EKVX NSCLC
[24] = tested on: SK-MEL-5 melanoma
[25] = tested on: SNB-19 CNS
[26] = tested on: MDA-MB-231 breast
[27] = tested on: T-47D breast
[28] = tested on: RPMI-8226 leukemia
[29] = tested on: IGROV1 ovarian
[30] = tested on: UACC-62 melanoma
[31] = tested on: SK-OV-3 ovarian
[32] = tested on: A498 renal
[33] = tested on: SR leukemia
[34] = tested on: U251 glioblastoma
[35] = tested on: COLO 205 colon
[36] = tested on: SF-295 CNS
[37] = tested on: OVCAR-4 ovarian
[38] = tested on: HCT-15 colon
[39] = tested on: HT29 colon
[40] = tested on: MOLT-4 leukemia
[41] = tested on: NCI-H23 lung
[42] = tested on: LOX IMVI melanoma
[43] = tested on: NCI-H322M lung
[44] = tested on: DU-145 prostate
[45] = tested on: BT-549 breast
[46] = tested on: SW-620 colon
[47] = tested on: RXF 393 renal
[48] = tested on: OVCAR-3 ovarian
[49] = tested on: CAKI-1 renal
[50] = tested on: CCRF-CEM leukemia
[51] = tested on: HOP-92 NSCLC
[52] = tested on: PC-3 prostate
[53] = tested on: ACHN renal
[54] = tested on: TK-10 renal
[55] = tested on: NCI-H460 NSCLC
[56] = tested on: OVCAR-8 ovarian
[57] = tested on: 786-0 renal
[58] = tested on: NCI-H522 lung

COc1cc2ncnc(Nc3cccc(Cl)c3F)c2cc1OC(=O)N1CCN(C)C[C@H]1C
GI50 [1]: 17.3 µM | TGI [1]: 32.4 µM | GI50 [2]: 16.7 µM | TGI [2]: 32.5 µM | GI50 [3]: 19.8 µM | TGI [3]: 87.4 µM | GI50 [4]: 11.7 µM | TGI [4]: 33.8 µM | GI50 [5]: 15.2 µM | TGI [5]: 29.6 µM | GI50 [6]: 0.128 µM | TGI [6]: 0.446 µM | GI50 [7]: 20.1 µM | TGI [7]: 41.4 µM | GI50 [8]: 15.1 µM | TGI [8]: 28.8 µM | GI50 [9]: 17.6 µM | TGI [9]: 47.1 µM | GI50 [10]: 22.6 µM | TGI [10]: 55.8 µM | GI50 [11]: 6.94 µM | TGI [11]: 27.9 µM | GI50 [12]: 5.49 µM | TGI [12]: 17.8 µM | GI50 [13]: 17.6 µM | TGI [13]: 42 µM | GI50 [14]: 16.5 µM | TGI [14]: 30.2 µM | GI50 [15]: 16.9 µM | TGI [15]: 32.8 µM | GI50 [16]: 12.3 µM | TGI [16]: 43.1 µM | GI50 [17]: 18.8 µM | TGI [17]: 54 µM | GI50 [18]: 16.4 µM | TGI [18]: 30.7 µM | GI50 [19]: 18 µM | TGI [19]: 64.2 µM | GI50 [20]: 2.69 µM | TGI [20]: 27.6 µM | GI50 [21]: 17.5 µM | TGI [21]: 31.5 µM | GI50 [22]: 14.6 µM | TGI [22]: 28 µM | GI50 [23]: 0.304 µM | TGI [23]: 16.7 µM | GI50 [24]: 11.5 µM | TGI [24]: 24.9 µM | GI50 [25]: 27.7 µM | TGI [25]: > 100 µM | GI50 [26]: 14.7 µM | TGI [26]: 38.4 µM | GI50 [27]: 9.89 µM | TGI [27]: 40.9 µM | GI50 [28]: 14.6 µM | TGI [28]: 30.9 µM | GI50 [29]: 0.241 µM | TGI [29]: 11.9 µM | GI50 [30]: 14.2 µM | TGI [30]: 28.1 µM | GI50 [31]: 3.46 µM | TGI [31]: 22.7 µM | GI50 [32]: 17 µM | TGI [32]: 42.5 µM | GI50 [33]: 10.8 µM | TGI [33]: 23.6 µM | GI50 [34]: 20.2 µM | TGI [34]: 48 µM | GI50 [35]: 22.4 µM | TGI [35]: 54 µM | GI50 [36]: 16.3 µM | TGI [36]: 31.4 µM | GI50 [37]: 18.5 µM | TGI [37]: 51.5 µM | GI50 [38]: 13.9 µM | TGI [38]: 29.2 µM | GI50 [39]: 14.4 µM | TGI [39]: 31.2 µM | GI50 [40]: 14.2 µM | TGI [40]: 28.1 µM | GI50 [41]: 16.4 µM | TGI [41]: 41.7 µM | GI50 [42]: 16.3 µM | TGI [42]: 30.5 µM | GI50 [43]: 0.144 µM | TGI [43]: 10.8 µM | GI50 [44]: 13.5 µM | TGI [44]: 58.2 µM | GI50 [45]: 20.3 µM | TGI [45]: 46.5 µM | GI50 [46]: 20.3 µM | TGI [46]: 38.2 µM | GI50 [47]: 14.1 µM | TGI [47]: 29.2 µM | GI50 [48]: 4.35 µM | TGI [48]: 24.3 µM | GI50 [49]: 2.3 µM | TGI [49]: 20.4 µM | GI50 [50]: 20.1 µM | TGI [50]: 49.2 µM | GI50 [51]: 13.4 µM | TGI [51]: 28.5 µM | GI50 [52]: 15.6 µM | TGI [52]: 49.8 µM | GI50 [53]: 0.427 µM | TGI [53]: 20.7 µM | GI50 [54]: 0.573 µM | TGI [54]: 21.3 µM | GI50 [55]: 19.9 µM | TGI [55]: 44.2 µM | GI50 [56]: 15.3 µM | TGI [56]: 49.2 µM | GI50 [57]: 14.4 µM | TGI [57]: 29 µM | GI50 [58]: 0.851 µM | TGI [58]: 17.5 µM
